Reference: article PMC6402482 (ACS chemical biology, 2018)

What was measured:
[1] = tested on: rat primary cortical neurons; test: Cytotoxicity in primary cortical neurons, LDH release at 24 h; format: cell-based; settings: n = 6/group
[2] = Comet tail intensity assay of DNA damage and repair after H2O2; format: cell-based, mouse; settings: 10 µM, 200 µM H2O2, repair over 30 min
[3] = Glutamate-induced ferroptotic cell death in HT22 cells, LDH release at 24 h; format: cell-based, mouse; settings: 5 mM glutamate, LDH at 24 h, n = 5/group
cancer cell lines = settings: most cancer cell lines; cited from earlier work
primary cortical neurons [4] = test: Mitochondrial and cytosolic NAD+ 24 h after OGD; format: cell-based, rat; settings: 10 nM, n = 6/group
primary cortical neurons [5] = test: Oxygen-glucose deprivation; format: cell-based, rat; settings: concentrations >100 nM
active PARP1 enzyme = active PARP1 enzyme (Homo sapiens, UniProt P09874); test: PARP1 enzyme inhibition ex vivo; settings: 0–100 nM on active PARP1 enzyme (10 U), triplicate
Chain of active PARP1 enzyme (P09874 whole entry): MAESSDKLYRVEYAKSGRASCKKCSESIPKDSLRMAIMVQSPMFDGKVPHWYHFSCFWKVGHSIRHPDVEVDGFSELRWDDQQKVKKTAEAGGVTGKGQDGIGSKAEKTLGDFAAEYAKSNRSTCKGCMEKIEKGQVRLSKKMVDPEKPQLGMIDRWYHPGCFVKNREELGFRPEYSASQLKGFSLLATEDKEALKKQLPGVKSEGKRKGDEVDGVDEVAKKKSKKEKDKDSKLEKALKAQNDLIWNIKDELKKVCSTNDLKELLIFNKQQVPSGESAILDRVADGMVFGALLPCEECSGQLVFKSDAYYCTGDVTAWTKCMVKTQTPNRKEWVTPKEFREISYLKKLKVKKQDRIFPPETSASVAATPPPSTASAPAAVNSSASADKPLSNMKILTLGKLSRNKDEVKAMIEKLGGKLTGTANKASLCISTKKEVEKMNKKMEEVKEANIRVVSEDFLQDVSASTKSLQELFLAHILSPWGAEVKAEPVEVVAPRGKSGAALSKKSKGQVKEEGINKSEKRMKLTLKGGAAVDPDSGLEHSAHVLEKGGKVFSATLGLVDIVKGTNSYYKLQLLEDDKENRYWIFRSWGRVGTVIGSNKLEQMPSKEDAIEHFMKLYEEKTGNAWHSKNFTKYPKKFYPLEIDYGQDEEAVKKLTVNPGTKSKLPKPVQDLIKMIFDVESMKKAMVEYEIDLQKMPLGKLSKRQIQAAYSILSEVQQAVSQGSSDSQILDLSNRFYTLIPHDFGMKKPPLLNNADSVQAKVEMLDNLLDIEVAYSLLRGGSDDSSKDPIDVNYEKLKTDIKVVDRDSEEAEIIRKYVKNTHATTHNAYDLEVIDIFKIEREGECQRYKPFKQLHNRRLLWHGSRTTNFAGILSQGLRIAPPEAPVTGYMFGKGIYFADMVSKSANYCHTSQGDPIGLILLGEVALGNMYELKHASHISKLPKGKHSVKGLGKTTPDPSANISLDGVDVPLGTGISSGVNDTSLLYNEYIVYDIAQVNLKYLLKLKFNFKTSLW

Compound: C[C@@]1(c2nc3c(C(N)=O)cccc3[nH]2)CCCN1 [veliparib, 2-[(S)-2-methylpyrrolidin-2-yl]-1H-benzimidazole-4-carboxamide]
- Concentration at which neurotoxicity (defined as >10% cell death) was seen [1]: 1000 nM
- Effect on DNA repair after H2O2 [2]: impeded DNA repair
- Inhibition of glutamate-induced ferroptosis [3]: inhibit glutamate-induced ferroptosis
- Tumoricidal concentration (cancer cell lines): > 100 µM
- Mitochondrial NAD+ stores after OGD (primary cortical neurons [4]): preserved
- Protection against OGD at higher concentrations (primary cortical neurons [5]): no additional protection
- PARP1 inhibition, veliparib versus XJB-veliparib (active PARP1 enzyme): similar
